Assay results as given in US9006454B2, “Dihydroorotate dehydrogenase inhibitors” (Merck Serono S.A., priority 2009, dated 2015).

How the values were obtained:
[1] = target: DHODH (Homo sapiens (Human), UniProt Q02127); assay: DHODH activity assay (coupled enzyme assay, DCIP reduction, absorbance at 610 nm); format: biochemical; conditions: for inhibition at 10 µM: read-out: inh @ 10 uM hDHODH (%)
Description: The DHODH activity assay is a coupled enzyme assay in which oxidation of DHO and subsequent reduction of ubiquinone are stoichiometrically equivalent to the reduction of DCIP ([…]). The reduction of DCIP is accompanied by a loss of absorbance at 610 nm.
Buffer Preparation: 50 mM tris HCl, 150 mM KCl, and pH 8.0, 0.8% triton.
5 μL of Dimethyl sulfoxide or a compound of formula I in DMSO solution was added to the wells of a 96 well plate. Compounds of formula I were measured at 10 μM.
Protein along with buffer was added, so that the total volume including the DMSO was 87 μL. Compound and protein were incubated for half an hour at room temperature after mixing. 5 μL of 20 mM solution of L-Dihydroorotic acid, 5 μL of 2 mM solution of Decylubiquinone and 3 μL of 2 mM solution of 2,6-Dichloroindophenol sodium salt hydrate were added to the above solution (total assay volume 100 μL). The mixture was stirred for 2 min and absorbance was recorded at every 10 min at 610 nanometers.
Percent Inhibition is Calculated as Follows
Positive control contains DMSO, buffer, enzyme and substrates
No Enzyme reaction contains DMSO, buffer and substrates
IC50 determination: • A 2 mM DMSO stock of the compound of formula I to be examined was prepared. ⅓rd dilutions were made as follows:
5 μL of each stock of compound of formula I (solution indicated in column 4 of table) was used for each 100 μL assay. Therefore, 5 μL of the 2 mM stock provided 100 μL of 100 μM solution of compound of formula I, when made up with buffer, protein and substrate. See also: Ulrich et al. (2001) Eur. J. Biochem. 268, 1861-1868.

[2] = system: Jurkat cells; assay: Measurement of cell proliferation (Jurkat cell), XTT assay; format: cell-based; conditions: Homo sapiens, Jurkat; for inhibition at 1 µM: compound at 1 uM, read-out: % inh Jurkat_cells @ 1 uM (%)
Description: See also Roehm, N et al [1991] An improved colorimetric assay for cell proliferation and viability utilizing the tetrazolium salt XTT. J. Immunol. Methods 142:257-265.
Culture Jurkat cells in T-25 flasks at a density of 0.2×10^6/ml 2-3 days before the day of experiment set up.
Centrifuge Jurkat T-cell suspension at 1200 rpm for 10 minutes and resuspend cells again in fresh RPMI medium with 10% FBS.
Count the cells and dilute suspension to a density of 2×10^6 cells/ml. Seed 50 μL of this suspension in each well of a 96 well plate (100,000 cells per well). Keep the edges of the plate empty to avoid evaporation.
Serially dilute DMSO stocks of compounds to get different concentrations for an EC50 curve. 50 μL of compound diluted in media (2× concentration required in well) is added to each well. DMSO concentration should be kept constant at 0.25-0.5% for all wells.
Typically, for all compounds with IC50<1 μM, compound concentration can start at 10 μM followed by half log dilutions for a total of 8-10 concentrations. Each concentration has to be tested in triplicate.
Include controls such as cells without compound (with same DMSO concentration as compound wells), and media control
Incubate the 96 well plate in a CO2 incubator at 37° C. for 72 hrs before determining cell viability using XTT assay
XTT assay: to each well, add 50 μL of 1 mg/ml XTT solution with 20 μl of PMS/mL. Read the plates after 2 hours at 465 nm using the spectrophotometer. XTT reading for media without cells is used as background reading.
Calculate % cell viability assuming that the cells without compound are 100% viable.
Plot % cell viability as a function of concentration and determine EC50 by using software such as Graph Pad Prism to fit the curve.

DHODH, sequence (Q02127 whole entry): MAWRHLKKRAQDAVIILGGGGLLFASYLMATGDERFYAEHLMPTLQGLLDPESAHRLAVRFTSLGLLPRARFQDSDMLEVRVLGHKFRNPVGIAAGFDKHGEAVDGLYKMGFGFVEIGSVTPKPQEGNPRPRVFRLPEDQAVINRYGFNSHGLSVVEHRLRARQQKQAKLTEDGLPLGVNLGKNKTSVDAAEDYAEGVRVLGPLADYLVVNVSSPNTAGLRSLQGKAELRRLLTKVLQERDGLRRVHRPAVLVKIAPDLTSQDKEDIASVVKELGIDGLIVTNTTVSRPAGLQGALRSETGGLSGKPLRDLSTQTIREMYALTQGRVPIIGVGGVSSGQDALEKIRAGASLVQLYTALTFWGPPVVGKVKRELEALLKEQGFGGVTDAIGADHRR

Structure (SMILES) | IC50 [1] [nM] | inhibition at 10 µM ([1]; compound at 10 uM) [%] | EC50 ([2]; 72 h, XTT cell viability) [nM] | inh @ 10 uM hDHODH (%) ([1]; compound at 10 uM) | inhibition at 1 µM [2] [%]
Cc1cc(C(=O)O)c2[nH]c(-c3ccc(-c4ccccc4F)cc3F)nc2c1 [I25] | 172 | 94 | 98 | – | 82
Cc1cc(C(=O)O)c2[nH]c(-c3ccc(-c4ccccc4OCc4ccccc4)cc3)nc2c1 [I106] | 1500 | 91 | – | – | 48
COc1cc(-c2ccccc2)ccc1-c1nc2c(C(=O)O)cc(C)cc2[nH]1 [I46] | 1180 | 97.7 | – | – | 57.1
Cc1cc(C(=O)O)c2nc(-c3ccc(-c4ccc(OCCCN5CCCCC5)cc4)cc3)[nH]c2c1 [I88] | 1630 | 82.9 | – | – | 40.3
O=C(O)c1cccn2nc(-c3ccc(-c4ccccc4)cc3)nc12 [I122] | 1200 | 88 | – | – | 55.4
Cc1cc(-c2nnc(O)o2)c2nc(-c3ccc(-c4ccccc4)cc3)[nH]c2c1 [I165] | – | 46 | – | – | 29.7
Cn1c(-c2ccc(-c3ccccc3)cc2)nc2cccc(C(=O)O)c21 [I8] | 1600 | 90.5 | – | – | –
Cc1cc(C(=O)O)c2[nH]c(-c3ccc(-n4c(C)ccc4C)cc3)nc2c1 [I121] | 401 | 108 | – | – | 70.7
Cn1cc(-c2ccc(-c3nc4cccc(C(=O)O)c4[nH]3)cc2)cn1 [I186] | – | 31.9 | – | – | 13.5
COc1cccc(-c2ccc(-c3nc4c(C(=O)O)cccc4[nH]3)cc2)c1 [I11] | – | 13.7 | – | – | 9.4
O=C(O)c1cc(F)cc2nc(-c3ccc4[nH]ccc4c3)[nH]c12 [I36] | – | 16.1 | – | – | 7.7
Cc1cc(C(=O)O)c2nc(-c3ccc(-c4ccc(OCCN5CCCC5)cc4)cc3)[nH]c2c1 [I151] | – | 67.9 | – | – | 16
O=C(O)c1cccc2[nH]c(-c3ccc(-c4ccc(OC(F)(F)F)cc4)cc3)nc12 [I16] | – | 39.9 | – | – | 18
O=C(O)c1cc(F)cc2[nH]c(-c3c(F)cc(-c4ccccc4)cc3F)nc12 [I68] | 276 | 97.8 | – | – | 78.4
O=C(O)c1cccc2[nH]c(-c3ccc(OCc4ccccc4)cc3)nc12 [I2] | 4950 | 66.1 | – | – | –
O=C(O)c1cccc2nc(-c3ccc(N4CCOCC4)cc3)[nH]c12 [I62] | – | 8.4 | – | – | –
Cc1cc(C(=O)O)c2nc(-c3ccc(-c4cnccn4)cc3)[nH]c2c1 [I147] | 8450 | 44.3 | – | – | –
Cc1cc(C(=O)O)c2nc(C#Cc3ccccc3)[nH]c2c1 [I84, 6-Methyl-2-phenylethynyl-1H-benzoimidazole-4-carboxylic acid] | – | 59.5 | – | – | –
Cc1nc(-c2ccc(-c3nc4cccc(C(=O)O)c4[nH]3)cc2)oc1C [I66] | – | 8.4 | – | – | –
COC(=O)c1cccc2nc(-c3ccc(-c4ccccc4)cc3)[nH]c12 [I79, 2-Biphenyl-4-yl-1H-benzoimidazole-4-carboxylic acid methyl ester] | – | 5.3 | – | – | –

Now from value to compound, other results behind:

IC50 [1] [nM] | inhibition at 10 µM ([1]; compound at 10 uM) [%] | EC50 ([2]; 72 h, XTT cell viability) [nM] | inh @ 10 uM hDHODH (%) ([1]; compound at 10 uM) | Structure (SMILES) | inhibition at 1 µM [2] [%]
898 | 84.4 | – | – | Cc1cc(C(=O)O)c2nc(-c3ccc(-c4cccc(F)c4F)cc3)[nH]c2c1 [I52] | 56.7
4790 | 78.8 | – | – | Cc1cc(C(=O)O)c2nc(-c3ccc(-c4ccccc4)cc3)n(CCO)c2c1 [I93] | 29
– | 82.7 | – | – | Cc1cc(C(=O)O)c2nc(-c3ccc(-c4ccccc4O)cc3)[nH]c2c1 [I167] | 34.5
2200 | 66.2 | – | – | CONC(=O)c1cc(C)cc2nc(-c3c(F)c(F)c(-c4ccccc4)c(F)c3F)[nH]c12 [I98] | 30.1
– | 47.2 | – | – | Cc1cc(C(=O)O)c2nc(-c3ccc(-c4ccc(OCCCN5CCCC5)cc4)cc3)[nH]c2c1 [I152] | 23.8
7070 | 59.8 | – | – | Cc1cc(C(=O)O)c2nc(-c3ccc(-c4ccccc4)cn3)[nH]c2c1 [I53] | 22.7
– | 59.4 | – | – | Cc1ccc(C)n1-c1ccc(-c2nc3cccc(C(=O)O)c3[nH]2)cc1 [I185] | 21.5
– | 39.8 | – | – | Cc1cc(C(=O)O)c2nc(-c3c(F)c(F)c(Oc4ccccc4)c(F)c3F)[nH]c2c1 [I189] | 3
707 | 82.2 | – | – | O=C(O)c1cccc2nc(-c3c(F)c(F)c(-c4ccccc4OCc4ccccc4)c(F)c3F)[nH]c12 [I101] | 60.1
– | 16.8 | – | – | N#Cc1cccc2nc(-c3ccc(-c4ccccc4)cc3)[nH]c12 [I38] | 8
– | 30.2 | – | – | Cn1c(-c2ccc(-c3ccccc3)cc2)nc2c(C(=O)O)cccc21 [I7] | –
1300 | 84 | – | – | O=C(O)c1cccc2[nH]c(-c3ccc(-c4cccc(OCc5ccccc5)c4)cc3)nc12 [I118] | 41.4
– | 5.7 | – | – | Cc1cc(C(=O)O)c2[nH]c(-c3ccc(-n4ccccc4=O)cc3)nc2c1 [I64] | 1.5
1010 | 92.7 | – | – | Cc1cc(C(=O)O)c2[nH]c(-c3ccc(-c4ccc(F)cc4F)cc3F)nc2c1 [I31] | 55.5
7200 | 64 | – | – | O=C(O)c1cccc2[nH]c(-c3cccc(Oc4ccccc4)c3)nc12 [I9] | 20
3800 | 76.1 | – | – | O=C(O)c1cccn2cc(-c3ccc(-c4ccccc4)cc3)nc12 [I138] | 44.8
118 | 88.1 | – | – | Cc1cc(C(=O)O)c2nc(-c3c(F)c(F)c(-c4ccc(F)cc4)c(F)c3F)[nH]c2c1 [I134] | 77.9
282 | 89.5 | – | – | O=C(O)c1cccc2[nH]c(-c3c(F)c(F)c(-c4cccnc4)c(F)c3F)nc12 [I136] | 68.4
– | 84 | – | – | Cc1cc(C(=O)O)c2nc(-c3ccc(-c4ccc(CO)cc4)cc3)[nH]c2c1 [I170] | 57
116 | 95 | – | – | Cc1cc(C(=O)O)c2nc(-c3c(F)c(F)c(-c4ccccc4)c(F)c3F)n(C)c2c1 [I113] | –
– | 32.4 | – | – | Cc1cc(C(=O)O)c2nc(-c3cc(-c4ccccc4)cs3)[nH]c2c1 [I49] | 11
1570 | 83.2 | – | – | O=C(O)c1cccc2[nH]c(-c3ccc(Oc4c(F)cccc4F)cc3)nc12 [I56] | 38.8
– | 80.4 | – | – | O=C(O)c1cccc2[nH]c(-c3ccc(-c4cccc(F)c4F)cc3)nc12 [I60] | 33.4
– | 40.4 | – | – | O=Cc1ccc(-c2ccc(-c3nc4c(C(=O)O)cccc4[nH]3)cc2)cc1 [I181] | 9.4
– | 5.6 | – | – | FC(F)(F)c1cccc2[nH]c(-c3ccc(-c4ccccc4)cc3)nc12 [I43] | –
– | 7.1 | – | – | Cc1cc(C(=O)O)c2[nH]c(-c3c[nH]c4ccccc34)nc2c1 [I42] | –
– | 9.4 | – | – | Cc1cc(C(=O)O)c2nc(-c3ccc(N4CCCCCC4=O)cc3)[nH]c2c1 [I80, 6-Methyl-2-[4-(2-oxo-azepan-1-yl)-phenyl]-1H-benzoimidazole-4-carboxylic acid] | –
– | 10.6 | – | – | O=C(O)c1cccc2[nH]c(-c3ccc(-c4ccc(C(F)(F)F)cc4)cc3)nc12 [I13] | –
– | – | – | 2.1 | COc1cccc(-c2ccc(-c3nc4c(C(=O)O)cccc4[nH]3)c(F)c2)c1 [I4] | –
– | 9 | – | – | Cc1ccc(-c2ccc(-c3nc4c(C(=O)O)cccc4[nH]3)cc2)cc1 [I12] | –
